Results reported in the NIST ThermoML archive (doi:10.1016/j.fluid.2013.09.036).
Numbers after ± are expanded uncertainties.

Tests used:
[1] = xn = mol fraction of the nth substance listed; settings: Liquid, Other PVT measurement
[2] = 101.33 kPa, Liquid; for mass density: Vibrating tube method

**Q.** For `CCC[N+]1(C)CCCC1.O=S(=O)([N-]S(=O)(=O)C(F)(F)F)C(F)(F)F` + O=C=O, which molar volume ([1]; 298.15 K, 525.5 kPa, x2 = 0.134) is on record?
**A.** 0.0002522 ± 3e-06 m3/mol

**Q.** And the molar volume ([1]; 298.15 K, 1123.1 kPa, x2 = 0.255)?
**A.** 0.0002222 ± 2.7e-06 m3/mol

**Q.** What about the molar volume ([1]; 298.15 K, 1476.5 kPa, x2 = 0.316) of the same compound?
**A.** 0.0002071 ± 2.5e-06 m3/mol

**Q.** And the molar volume ([1]; 298.15 K, 1913.1 kPa, x2 = 0.376)?
**A.** 0.0001924 ± 2.3e-06 m3/mol

**Q.** What about the molar volume ([1]; 298.15 K, 2237.6 kPa, x2 = 0.418) of the same compound?
**A.** 0.000182 ± 2.2e-06 m3/mol

**Q.** And the molar volume ([1]; 298.15 K, 2800.7 kPa, x2 = 0.478)?
**A.** 0.0001674 ± 2e-06 m3/mol

**Q.** What about the molar volume ([1]; 298.15 K, 3281.6 kPa, x2 = 0.523) of the same compound?
**A.** 0.0001565 ± 1.9e-06 m3/mol

**Q.** What about the molar volume ([1]; 298.15 K, 3998.7 kPa, x2 = 0.578) of the same compound?
**A.** 0.0001431 ± 1.7e-06 m3/mol

**Q.** What about the molar volume ([1]; 298.15 K, 4567.3 kPa, x2 = 0.616) of the same compound?
**A.** 0.0001339 ± 1.6e-06 m3/mol

**Q.** What about the molar volume ([1]; 313.15 K, 567.7 kPa, x2 = 0.113) of the same compound?
**A.** 0.0002606 ± 3.1e-06 m3/mol

**Q.** What about the molar volume ([1]; 313.15 K, 1217.5 kPa, x2 = 0.218) of the same compound?
**A.** 0.0002344 ± 2.8e-06 m3/mol

**Q.** What about the molar volume ([1]; 313.15 K, 1606.5 kPa, x2 = 0.273) of the same compound?
**A.** 0.0002203 ± 2.6e-06 m3/mol

**Q.** What about the molar volume ([1]; 313.15 K, 2083.3 kPa, x2 = 0.327) of the same compound?
**A.** 0.000207 ± 2.5e-06 m3/mol

**Q.** What about the molar volume ([1]; 313.15 K, 2445 kPa, x2 = 0.369) of the same compound?
**A.** 0.0001966 ± 2.4e-06 m3/mol

**Q.** What about the molar volume ([1]; 313.15 K, 3072.7 kPa, x2 = 0.425) of the same compound?
**A.** 0.0001827 ± 2.2e-06 m3/mol

**Q.** And the molar volume ([1]; 313.15 K, 3613.6 kPa, x2 = 0.468)?
**A.** 0.0001718 ± 2.1e-06 m3/mol

**Q.** What about the molar volume ([1]; 313.15 K, 4415.1 kPa, x2 = 0.519) of the same compound?
**A.** 0.0001596 ± 1.9e-06 m3/mol

**Q.** What about the molar volume ([1]; 313.15 K, 5100.5 kPa, x2 = 0.561) of the same compound?
**A.** 0.000149 ± 1.8e-06 m3/mol

**Q.** And the molar volume ([1]; 333.15 K, 618.4 kPa, x2 = 0.093)?
**A.** 0.0002678 ± 3.2e-06 m3/mol

**Q.** And the molar volume ([1]; 333.15 K, 1333.3 kPa, x2 = 0.18)?
**A.** 0.0002455 ± 2.9e-06 m3/mol

**Q.** And the molar volume ([1]; 333.15 K, 1767.4 kPa, x2 = 0.229)?
**A.** 0.0002327 ± 2.8e-06 m3/mol

**Q.** And the molar volume ([1]; 333.15 K, 2294.9 kPa, x2 = 0.275)?
**A.** 0.0002214 ± 2.7e-06 m3/mol

**Q.** What about the molar volume ([1]; 333.15 K, 2702.9 kPa, x2 = 0.316) of the same compound?
**A.** 0.0002107 ± 2.5e-06 m3/mol

**Q.** What about the molar volume ([1]; 333.15 K, 3411.9 kPa, x2 = 0.368) of the same compound?
**A.** 0.0001978 ± 2.4e-06 m3/mol

**Q.** And the molar volume ([1]; 333.15 K, 4029.9 kPa, x2 = 0.409)?
**A.** 0.0001874 ± 2.3e-06 m3/mol

**Q.** And the molar volume ([1]; 333.15 K, 4942.5 kPa, x2 = 0.455)?
**A.** 0.0001767 ± 2.1e-06 m3/mol

**Q.** And the molar volume ([1]; 333.15 K, 5777.2 kPa, x2 = 0.501)?
**A.** 0.000165 ± 2e-06 m3/mol

**Q.** With `CCC[N+]1(C)CCCC1.O=S(=O)([N-]S(=O)(=O)C(F)(F)F)C(F)(F)F` as the compound, how does the electrical conductivity ([2]; 278.15 K) read?
**A.** 0.158 ± 0.0063 S/m

**Q.** What about the viscosity ([2]; 278.15 K) of the same compound?
**A.** 169.4 ± 6.8 mPa·s

**Q.** What about the mass density ([2]; 278.15 K) of the same compound?
**A.** 1446.23 ± 1.6 kg/m3

**Q.** What about the electrical conductivity ([2]; 283.15 K) of the same compound?
**A.** 0.206 ± 0.0082 S/m

**Q.** And the viscosity ([2]; 283.15 K)?
**A.** 127.2 ± 5.1 mPa·s

**Q.** What about the mass density ([2]; 283.15 K) of the same compound?
**A.** 1441.6 ± 1.6 kg/m3

**Q.** What about the electrical conductivity ([2]; 288.15 K) of the same compound?
**A.** 0.262 ± 0.011 S/m

**Q.** What about the viscosity ([2]; 288.15 K) of the same compound?
**A.** 97.84 ± 4 mPa·s

**Q.** And the mass density ([2]; 288.15 K)?
**A.** 1437 ± 1.5 kg/m3

**Q.** What about the electrical conductivity ([2]; 293.15 K) of the same compound?
**A.** 0.327 ± 0.013 S/m

**Q.** What about the viscosity ([2]; 293.15 K) of the same compound?
**A.** 76.89 ± 3.1 mPa·s

**Q.** And the mass density ([2]; 293.15 K)?
**A.** 1432.46 ± 1.5 kg/m3

**Q.** And the electrical conductivity ([2]; 298.15 K)?
**A.** 0.4 ± 0.016 S/m

**Q.** And the viscosity ([2]; 298.15 K)?
**A.** 61.52 ± 2.5 mPa·s

**Q.** What about the mass density ([2]; 298.15 K) of the same compound?
**A.** 1427.91 ± 1.5 kg/m3

**Q.** And the electrical conductivity ([2]; 303.15 K)?
**A.** 0.483 ± 0.019 S/m

**Q.** And the viscosity ([2]; 303.15 K)?
**A.** 49.99 ± 2 mPa·s

**Q.** And the mass density ([2]; 303.15 K)?
**A.** 1423.37 ± 1.5 kg/m3

**Q.** What about the electrical conductivity ([2]; 313.15 K) of the same compound?
**A.** 0.675 ± 0.027 S/m

**Q.** And the viscosity ([2]; 313.15 K)?
**A.** 34.45 ± 1.4 mPa·s

**Q.** And the mass density ([2]; 313.15 K)?
**A.** 1414.36 ± 1.5 kg/m3

**Q.** And the electrical conductivity ([2]; 323.15 K)?
**A.** 0.902 ± 0.036 S/m

**Q.** What about the viscosity ([2]; 323.15 K) of the same compound?
**A.** 24.91 ± 1 mPa·s

**Q.** And the mass density ([2]; 323.15 K)?
**A.** 1405.44 ± 1.5 kg/m3

**Q.** What about the electrical conductivity ([2]; 333.15 K) of the same compound?
**A.** 1.16 ± 0.047 S/m

**Q.** What about the viscosity ([2]; 333.15 K) of the same compound?
**A.** 18.71 ± 0.75 mPa·s

**Q.** What about the mass density ([2]; 333.15 K) of the same compound?
**A.** 1396.6 ± 1.5 kg/m3

**Q.** And the electrical conductivity ([2]; 343.15 K)?
**A.** 1.46 ± 0.058 S/m

**Q.** What about the viscosity ([2]; 343.15 K) of the same compound?
**A.** 14.51 ± 0.58 mPa·s

**Q.** What about the mass density ([2]; 343.15 K) of the same compound?
**A.** 1387.82 ± 1.5 kg/m3

**Q.** And the electrical conductivity ([2]; 353.15 K)?
**A.** 1.78 ± 0.071 S/m

**Q.** What about the viscosity ([2]; 353.15 K) of the same compound?
**A.** 11.55 ± 0.47 mPa·s

**Q.** And the mass density ([2]; 353.15 K)?
**A.** 1379.12 ± 1.5 kg/m3

**Q.** What about the viscosity ([2]; 363.15 K) of the same compound?
**A.** 9.398 ± 0.38 mPa·s

**Q.** What about the mass density ([2]; 363.15 K) of the same compound?
**A.** 1370.48 ± 1.5 kg/m3
